One series relates to NCI-H526. Nature of the series: N-Myc-driven mouse xenograft model, human cell line NCI-H526 (FIG. 3D). The format is in vivo. (A xenograft is tissue or cells of one species grown in another, often human tumour cells in immunodeficient mice.)
Series [1] relates to NCI-H1155, ABC-1 and EBC-1, NCI-H2023 cell lines. Kind of series: Viability assay (CellTiter-Glo) in N-Myc high and N-Myc low NSCLC cell lines. The class given is cell-based. The conditions noted are these: 72 hours. Here is the method: The anti-proliferative activity of compound 10 was tested on representative N-Myc high and N-Myc low cell lines (NCI-H1155, ABC-1 and EBC-1, NCI-H2023, respectively) following treatment with compound for 72 hours. Cells were sub-cultures as recommended by the providers (ATCC, DSMZ) and incubated at 37° C., 5% CO2. All cells were authenticated and confirmed by Short Tandem Repeat (STR) profiling. Briefly, cells were seeded to the appropriate density to allow logarithmic growth over the assay period in 96-well opaque-walled clear bottom plates (from Corning, Cat. No. 3903, Lot. No. 16419061; 100 μL total volume) and incubated overnight. […] Cell viability was assessed using the CellTiter-Glo assay kit as recommended by the Manufacturer (Promega, Cat. No. G7558, Lot. No. 0000385738) and measurements performed on the EnSpire multimode plate reader (Perkin Elmer). EC50 values were determined using Prism8 (GraphPad) and the asymmetric (five-parameter) equation and least squares fit. GSPT1 levels were assessed in the NCI-H1155 and ABC-1 cell lines by densitometry analysis following treatment with compound 10 for 6 hours and western blotting analysis. […] For chemiluminescence and colorimetric signals “optimal automatic exposure” settings (3×3 binning) were employed while fluorescence was detected using 1-4 seconds exposure time to achieve best GAPDH signals and avoid overexposure. […]
(In general: ATP-based viability assays read luminescence as a measure of living cells.)

The subject of a further series is NCI-H1155. Kind of series: viability of NSCLC cell line, high N-Myc (FIG. 2A). The format is cell-based, human. The conditions noted are these: compared to low N-Myc EBC-1 and NCI-H2023. Here is the method:
(§1) GSPT1 was degraded by compound 10 after six hours of treatment in high N-Myc NCI-H1155 and ABC-1 cells with a DC50 of 3 nM and 22 nM, respectively (x-axys represents […]M concentration of compound 10; y-axis represents the viability in %).

For a further series, the target named is GSPT1 (Homo sapiens, UniProt P15170+Q96SW2). Kind of series: GSPT1 degradation in NCI-H1155 cells. The format is cell-based. The protocol:
as §1

Another series deals with NCI-H1770. Nature of the series: N-Myc-driven mouse xenograft model, human cell line NCI-H1770 (FIG. 3C). The class given is in vivo.
Setting [2] is: 6 mg/kg PO, five days on and nine days off.

Sequence of GSPT1 (P15170 whole entry): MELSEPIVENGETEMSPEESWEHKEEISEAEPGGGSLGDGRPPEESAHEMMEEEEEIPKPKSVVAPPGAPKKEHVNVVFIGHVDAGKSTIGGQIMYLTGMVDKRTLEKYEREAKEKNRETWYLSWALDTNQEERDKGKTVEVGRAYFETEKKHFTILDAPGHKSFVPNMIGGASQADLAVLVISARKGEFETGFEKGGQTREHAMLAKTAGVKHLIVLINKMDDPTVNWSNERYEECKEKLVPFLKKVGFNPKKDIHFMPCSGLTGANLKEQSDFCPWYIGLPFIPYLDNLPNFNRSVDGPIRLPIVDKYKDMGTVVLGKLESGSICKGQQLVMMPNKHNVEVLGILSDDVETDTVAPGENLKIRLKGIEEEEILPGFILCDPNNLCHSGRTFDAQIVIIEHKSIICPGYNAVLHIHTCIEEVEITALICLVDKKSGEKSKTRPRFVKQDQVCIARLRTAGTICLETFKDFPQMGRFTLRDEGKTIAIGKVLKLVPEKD
Sequence of GSPT1 (Q96SW2 whole entry): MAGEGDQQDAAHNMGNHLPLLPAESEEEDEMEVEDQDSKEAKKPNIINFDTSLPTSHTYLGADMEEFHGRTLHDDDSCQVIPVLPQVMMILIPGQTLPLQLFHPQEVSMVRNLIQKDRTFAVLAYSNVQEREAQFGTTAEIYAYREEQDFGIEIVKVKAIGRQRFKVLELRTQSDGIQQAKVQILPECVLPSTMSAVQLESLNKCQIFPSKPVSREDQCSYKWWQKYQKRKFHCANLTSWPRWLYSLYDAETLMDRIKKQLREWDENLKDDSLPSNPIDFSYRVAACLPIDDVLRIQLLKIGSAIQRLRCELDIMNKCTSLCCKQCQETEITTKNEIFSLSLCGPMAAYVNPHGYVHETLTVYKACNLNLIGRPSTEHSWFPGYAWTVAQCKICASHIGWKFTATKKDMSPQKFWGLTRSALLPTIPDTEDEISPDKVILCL
Sequence of GSPT1 (Q16531 2-1140 partner limits assumed): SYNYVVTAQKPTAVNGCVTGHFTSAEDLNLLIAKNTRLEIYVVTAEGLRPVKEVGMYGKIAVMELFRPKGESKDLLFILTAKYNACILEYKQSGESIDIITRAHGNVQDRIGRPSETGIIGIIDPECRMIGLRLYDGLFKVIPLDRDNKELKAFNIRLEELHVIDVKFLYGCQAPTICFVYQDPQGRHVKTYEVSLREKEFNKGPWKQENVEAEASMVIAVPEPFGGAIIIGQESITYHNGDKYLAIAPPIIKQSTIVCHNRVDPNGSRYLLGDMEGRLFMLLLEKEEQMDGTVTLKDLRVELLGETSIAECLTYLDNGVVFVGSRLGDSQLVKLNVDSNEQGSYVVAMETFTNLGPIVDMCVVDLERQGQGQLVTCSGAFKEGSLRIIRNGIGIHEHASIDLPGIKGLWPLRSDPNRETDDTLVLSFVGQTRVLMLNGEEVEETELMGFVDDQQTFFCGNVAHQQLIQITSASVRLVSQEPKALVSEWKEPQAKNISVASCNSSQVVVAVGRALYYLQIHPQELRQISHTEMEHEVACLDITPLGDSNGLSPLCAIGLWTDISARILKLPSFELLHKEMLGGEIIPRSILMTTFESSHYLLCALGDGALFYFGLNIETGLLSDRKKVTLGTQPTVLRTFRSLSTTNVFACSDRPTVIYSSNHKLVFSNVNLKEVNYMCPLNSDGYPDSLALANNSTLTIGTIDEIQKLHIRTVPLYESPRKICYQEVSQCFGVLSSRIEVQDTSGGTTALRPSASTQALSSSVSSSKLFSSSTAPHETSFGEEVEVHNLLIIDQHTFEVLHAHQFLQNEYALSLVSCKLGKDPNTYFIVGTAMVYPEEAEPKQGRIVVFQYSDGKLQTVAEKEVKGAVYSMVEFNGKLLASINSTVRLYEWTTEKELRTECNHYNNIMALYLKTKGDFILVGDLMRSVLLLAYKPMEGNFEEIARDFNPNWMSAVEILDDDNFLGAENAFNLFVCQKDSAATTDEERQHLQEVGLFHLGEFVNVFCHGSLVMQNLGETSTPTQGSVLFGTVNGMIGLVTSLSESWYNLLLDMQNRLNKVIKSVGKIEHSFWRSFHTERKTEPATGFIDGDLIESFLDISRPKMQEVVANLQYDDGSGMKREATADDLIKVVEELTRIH

Turning to `Cc1ccc(NC(=O)OCc2ccc3c(c2)C(=O)N(C2CCC(=O)NC2=O)C3)cc1Cl` (centres unmarked) [Compound 10], the “tumor size (tumor volume)” value in the series with NCI-H526 (3 mg/kg once daily, PO) is “tumor size decreased and remained so until the end of the study”; in the series on NCI-H526 (setting [2]), “tumor size decreased and remained so until the end of the study”; in the series with NCI-H1770 (3 mg/kg once daily, PO) it was “tumor size decreased and remained so until the end of the study”; with NCI-H1770 (setting [2]), “tumor size decreased and remained so until the end of the study”. In addition, the body weight result was “no body weight loss observed” in the series with NCI-H526 (oral administration, NCI-H526 xenograft) and “no body weight loss observed” in the series on NCI-H1770 (oral administration, NCI-H1770 xenograft). Besides, the “tumor growth (tumor volume)” value in the series on NCI-H526 (oral administration, NCI-H526 xenograft, overall) is recorded as “tumor growth inhibition”; in the series with NCI-H1770 (oral administration, NCI-H1770 xenograft, overall), “tumor growth inhibition”. Besides, the “Sensitivity (anti-proliferative activity) versus N-Myc expression (FIG. 2A)” value in series [1] is listed as “sensitivity correlated with the expression of N-Myc”. The “sensitivity to treatment (viability in %)” value in the series on NCI-H1155 is “highly sensitive”. Moreover, on GSPT1, the “extent of GSPT1 degradation” value is listed as “complete degradation”.

For the origin of these results see US20230348418A1, “ISOINDOLINONE COMPOUNDS” (Monte Rosa Therapeutics, Inc., priority 2021, published 2023).
